Test results published in patent publication US20070072830A1, “Methods for treating diabetes” (Point Therapeutics, Inc., priority 2004, published 2007).
Read-outs that look alike come from different tables or passages of the source.

Key:
Lewis rats = system: Lewis rats
Protocol: (§1) Serum DPP-IV inhibition and observation of acute toxicity of amino boronic dipeptides in Lewis rats. […] After observations were completed or at the onset of a moribund state, humane euthanasia was performed by asphyxiation in 100% CO2.

[1] = target: T1, soluble recombinant human DPP-IV (Homo sapiens, UniProt P27487); assay: In vitro inhibition of recombinant soluble DPP-IV by amino boronic dipeptides; format: biochemical; conditions: assayed at 3 minutes, 78 minutes and 16 hours after addition of Ala-Pro-AFC
T1 construct: immunoglobulin kappa light chain secretion signal (pSecTag2-B) (N, cleaved yes); made in house; host or cells: 293T cells, transient transfection; culture supernatant used unpurified
T1 sequence (P27487 39-766): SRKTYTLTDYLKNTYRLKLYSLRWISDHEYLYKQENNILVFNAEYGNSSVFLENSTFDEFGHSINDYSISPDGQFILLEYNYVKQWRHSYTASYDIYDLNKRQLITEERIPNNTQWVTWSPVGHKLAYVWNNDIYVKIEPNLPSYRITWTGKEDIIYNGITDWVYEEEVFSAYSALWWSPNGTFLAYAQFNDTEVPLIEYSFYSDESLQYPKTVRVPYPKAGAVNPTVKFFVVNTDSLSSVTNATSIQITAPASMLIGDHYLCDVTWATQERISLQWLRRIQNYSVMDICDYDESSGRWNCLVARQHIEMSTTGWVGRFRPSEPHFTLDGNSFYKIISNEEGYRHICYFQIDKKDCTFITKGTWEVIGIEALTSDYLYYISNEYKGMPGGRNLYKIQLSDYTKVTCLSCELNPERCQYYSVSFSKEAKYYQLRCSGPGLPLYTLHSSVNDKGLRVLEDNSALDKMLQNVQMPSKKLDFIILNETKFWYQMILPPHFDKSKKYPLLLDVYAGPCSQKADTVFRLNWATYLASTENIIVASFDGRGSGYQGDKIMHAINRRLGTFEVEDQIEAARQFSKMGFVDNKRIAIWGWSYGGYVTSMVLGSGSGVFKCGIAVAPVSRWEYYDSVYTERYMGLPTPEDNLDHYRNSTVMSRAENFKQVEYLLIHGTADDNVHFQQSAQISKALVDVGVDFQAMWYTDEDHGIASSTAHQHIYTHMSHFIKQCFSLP
Excerpt: Production of soluble recombinant human DPP-IV. Based on information on the N-terminus of serum DPP-IV (15), a truncated DPP-IV was engineered in which a signal/leader sequence was joined to the residue in DPP-IV corresponding to the N-terminus of serum DPP-IV to allow secretion. The cDNA encoding the desired truncated human DPP-IV dimer enzyme was engineered into the mammalian secretion vector pSecTag2 (Cat# V900-20, InVitrogen Corporation). The vector, available in A, B or C versions, representing three possible phases for gene fusion, contained an immunoglobulin-kappa light chain secretion signal followed by a selection of restriction sites for gene insertion. The fusion required engineering a restriction site upstream of the chosen fusion amino acid in the 5′ end of the DPP-IV dimer enzyme nucleic acid in phase with the chosen restriction site (Sfi I) in the vector secretion sequence. The chosen fusion amino acid in the 5′ end of the DPP-IV (Ser39) was 3′ of the trans-membrane anchoring domain. The pSecTag2 version B and its Sfi I restriction site was chosen for the fusion because it minimizes the additional N-terminal, vector-encoded residues in the mature secreted protein.
Construction of the fusion was as follows. First, total RNA was isolated from the Caco-2 colorectal carcinoma cell line (ATCC HTB-37) by standard Trizol/phenol /chloroform methodology. The purified RNA (approx. 2.5 μg in a 20 μl reaction) was used to make cDNA using oligo-dT primer and a commercial reverse transcription (RT) kit (InVitrogen). […] The following thermal cycler program was used: 94° C. for 45 sec. initial denaturation, then 30 cycles of 94° C., 10 sec.; 48° C., 6 sec.; 60° C., 4 min; followed by 5-min. extension at 72° C. after cycling.
DNA from the plasmid encoding DPP-IV dimer enzyme was prepared on an approximately 400 μg scale from overnight 30 ml cultures in Luria broth with 100 μg ampicillin per ml using a commercial kit (Qiagen Maxiprep Kit).
In vitro assay of enzymatic activity of recombinant soluble DPP-IV and inhibition by amino boronic dipeptides. The assay reaction mixture consisted of 135 μl 50 mM HEPES/Na buffer pH 7.6, 140 mM NaCl, 10-15 μl enzyme-containing culture supernatant, dipeptide substrate Ala-Pro-(7-amino-4-trifluoromethyl coumarin) (Ala-Pro-AFC; Enzyme System Products, Dublin, Calif.) at typically 0.1-1 mM added from a 100 or 400 mM stock in dimethyl formamide. The reaction mixture was incubated at room temperature, and production of the fluorescent AFC product was measured in a fluorometer (excitation, 400 nm; emission 505 nm), either by continuous monitoring or after termination with a one to one-tenth volume of 1-M sodium acetate, pH 4.5. Fluorometric reading were made with a […] Spectra Max GeminiXS capable of reading 96-well microtiter plates. The inhibitory activity of amino boronic dipeptides was investigated by preincubation of assay reaction mixtures with varying concentrations of each compound for 10 minutes before the addition of the substrate Ala-Pro-AFC.

serum KC/CXCL1 = assay: Serum KC/CXCL1 levels in vivo in BALB/c mice; conditions: 0.2-200 μg/mouse oral, 2 hours
Protocol: (§2) Assay ofserum DPP-IV inhibition and KC/CXCL1 levels in vivo. […] Each mouse received a single administration of each amino boronic dipeptide or saline, and blood samples were withdrawn from mice 2 hours later.
Serum concentration of mouse KC/CXCL1 was determined by Quantikine enzyme-linked immunosorbent assay (ELISA; R&D Systems, Minneapolis, Minn.) according to the manufacturer's instructions. ELISA was performed in duplicate for each sample.

[2] = system: human bone marrow stromal cells; assay: G-CSF supernatant levels in human bone marrow stromal cell cultures; format: cell-based; conditions: 1 to 10^4 nM, 24 hours in vitro
Protocol: Human bone marrow stromal cell cultures. Samples of normal human bone marrow were purchased from Cambrex Bioproducts (Walkersville, Md.) and mononuclear cells were purified over Ficoll-Hypaque (Nycomed, Oslo, Norway). Human stromal layers were established by seeding 4×10^7 mononuclear cells into T75 flasks (Coming) containing 20 ml MyeloCult medium (Stem Cell Technologies, Vancouver, BC) supplemented with 10^−6 M hydrocortisone (Sigma) and incubation at 37° C. in 100% humidified 5% CO2 in air. After one week, half the medium was exchanged, and the cultures incubated for approximately one week more, after which time, a semi-confluent cell layer was formed. Stromal cells were harvested by trypsinization using standard technique and 10^5 cells/well were seeded in multi-well plates in 1 ml of fully supplemented DMEM (InVitrogen, Carlsbad, Calif.). […] Multiwell cultures without the addition of amino boronic dipeptides served as controls. […] Supernatant concentrations of human G-CSF were determined by Quantikine enzyme-linked immunosorbent assay (ELISA; R&D Systems, Minneapolis, Minn.) according to the manufacturer's instructions. […] The effect of each amino boronic dipeptide on the level of supernatant G-CSF was determined by calculating a stimulation index (SI): SI=(mean G-CSF concentration in culture with amino boronic dipeptide)/(mean G-CSF concentration in control culture).

serum DPP-IV [3] = target: T2, serum DPP-IV (Rattus norvegicus, UniProt P14740); assay: Serum DPP-IV inhibition in Lewis rats; format: in vivo; conditions: single oral administration, 2 hours
T2 construct: from tissue; host or cells: serum of Lewis rats dosed in vivo
T2 sequence (P14740 37-767 limits assumed): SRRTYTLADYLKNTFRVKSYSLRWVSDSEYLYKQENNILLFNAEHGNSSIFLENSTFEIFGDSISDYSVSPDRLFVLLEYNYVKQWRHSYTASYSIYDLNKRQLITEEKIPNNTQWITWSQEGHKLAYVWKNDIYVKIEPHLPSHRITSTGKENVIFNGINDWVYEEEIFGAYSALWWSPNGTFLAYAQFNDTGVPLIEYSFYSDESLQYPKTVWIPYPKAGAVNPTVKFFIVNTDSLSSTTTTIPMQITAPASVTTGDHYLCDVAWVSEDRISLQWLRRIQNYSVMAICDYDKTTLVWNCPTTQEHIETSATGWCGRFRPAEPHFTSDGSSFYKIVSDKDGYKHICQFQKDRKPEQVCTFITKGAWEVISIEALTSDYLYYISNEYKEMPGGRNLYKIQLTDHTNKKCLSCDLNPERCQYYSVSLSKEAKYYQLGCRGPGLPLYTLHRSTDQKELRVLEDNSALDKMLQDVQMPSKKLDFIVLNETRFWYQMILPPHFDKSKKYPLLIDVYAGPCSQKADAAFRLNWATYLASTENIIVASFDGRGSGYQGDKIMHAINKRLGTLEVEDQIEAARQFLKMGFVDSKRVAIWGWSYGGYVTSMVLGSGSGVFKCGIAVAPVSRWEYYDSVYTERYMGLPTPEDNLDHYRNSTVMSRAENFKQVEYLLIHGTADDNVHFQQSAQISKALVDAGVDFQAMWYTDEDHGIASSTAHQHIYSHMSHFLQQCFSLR
Protocol: (§3) Assay of serum DPP-IV inhibition in vivo.
as §1

Zucker fa/fa rats = assay: Rat oral glucose tolerance test (OGTT): glucose, insulin, GLP-1; format: in vivo; conditions: 10 μmol/kg oral
Excerpt: Protocol for rat oral glucose tolerance test (OGTT). […] On days −11 to −8, rats were fitted with intra-arterial catheters under light isoflurane anesthesia. […] From 12:00 a.m.

serum DPP-IV [4] = target: T3, serum DPP-IV (Mus musculus, UniProt P28843); assay: Serum DPP-IV inhibition in vivo in BALB/c mice after oral gavage; conditions: 2 hours
T3 construct: from tissue; host or cells: serum of BALB/c mice dosed orally
T3 sequence (P28843 37-760 limits assumed): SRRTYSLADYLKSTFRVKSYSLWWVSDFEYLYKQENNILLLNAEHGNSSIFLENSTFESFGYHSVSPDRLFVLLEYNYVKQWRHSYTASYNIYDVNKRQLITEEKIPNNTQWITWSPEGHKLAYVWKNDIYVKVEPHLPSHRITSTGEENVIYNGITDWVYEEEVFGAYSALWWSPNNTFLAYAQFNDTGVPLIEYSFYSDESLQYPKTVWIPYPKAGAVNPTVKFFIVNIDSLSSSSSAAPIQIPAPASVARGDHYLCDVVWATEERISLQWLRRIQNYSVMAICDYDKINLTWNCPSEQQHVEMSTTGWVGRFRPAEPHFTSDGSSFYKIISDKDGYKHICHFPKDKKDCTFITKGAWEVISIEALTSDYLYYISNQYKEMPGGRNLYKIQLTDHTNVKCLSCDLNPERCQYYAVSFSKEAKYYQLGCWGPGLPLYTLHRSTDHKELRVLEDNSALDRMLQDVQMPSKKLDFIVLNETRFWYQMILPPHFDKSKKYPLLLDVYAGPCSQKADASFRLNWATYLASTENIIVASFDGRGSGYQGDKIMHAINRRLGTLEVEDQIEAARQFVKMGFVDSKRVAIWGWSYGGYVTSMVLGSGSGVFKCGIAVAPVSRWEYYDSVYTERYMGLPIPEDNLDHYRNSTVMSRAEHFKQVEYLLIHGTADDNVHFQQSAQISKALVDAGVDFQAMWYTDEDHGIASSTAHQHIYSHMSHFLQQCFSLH
Protocol: as §3, §2
Serum DPP-IV activity was determined by reaction of a 10 μl volume of serum with 0.1 mM Ala-Pro-AFC (Enzyme System Products, Dublin, Calif.) in a 100 μl volume of 50 mM HEPES/Na buffer pH 7.6, 140 mM NaCl. […] Serum DPP-IV activity was expressed as fluorescent units (FU).

ob/ob mice = assay: Mouse oral glucose tolerance test (OGTT); format: in vivo
Protocol: Protocol for mouse oral glucose tolerance test (OGTT). The day of oral-glucose challenge was defined as day 0. […] Agents were administered by oral gavage. Mice were restricted to a diet of 50% of their individual calculated food intake from day −1 onwards. On day 0, blood glucose was measured at t−15 min. immediately followed by drug administration. At time point 0, glucose was administered by oral gavage (1 g/kg), and blood glucose was measured at time points 0, 30, 60, 120 and 240 minutes. Means±SE were calculated from the data of individual mice in drug-treatment groups 1 and 2.

[5] = Lewis rats, single dose, observed 5 days

Row | Compound | MTD (maximum tolerated dose) (Lewis rats; [5]) | Persistence / reversibility of DPP-IV inhibition [1] | Effect on serum levels of KC/CXCL1 (serum KC/CXCL1) | also measured
1 | C[C@@H](O)[C@H](N)C(=O)N1CCC[C@H]1B(O)O [Thr-boroPro] | 800 µg/kg | – | – | –
2 | NC(N)=NCCC[C@H](N)C(=O)N1CCC[C@H]1B(O)O [Arg-boroPro] | ≧2,000 μg/kg | more rapidly reversible | – | –
3 | CC(C)C[C@H](N)C(=O)N1CCC[C@H]1B(O)O [Leu-boroPro] | 200 µg/kg | more rapidly reversible | stimulate increased serum levels of KC/CXCL1 in a dose-dependent manner | Stimulation of G-CSF levels in culture supernatants (stimulation index) [2]: stimulate increased levels of G-CSF
4 | CC(C)[C@H](N)C(=O)N1CCC[C@H]1B(O)O [Val-boroPro] | 20 µg/kg | – | stimulate increased serum levels of KC/CXCL1 in a dose-dependent manner | ID50 (dose causing a 50% reduction in serum DPP-IV activity from baseline) (serum DPP-IV [3]): 0.009 mg/kg
5 | CC[C@H](C)[C@H](N)C(=O)N1CCC[C@H]1B(O)O [Ile-boroPro] | 120 µg/kg | sustained DPP-IV inhibition | stimulate increased serum levels of KC/CXCL1 in a dose-dependent manner | Stimulation of G-CSF levels in culture supernatants (stimulation index) [2]: stimulate increased levels of G-CSF
6 | C[C@H](N)C(=O)N1CCC[C@H]1B(O)O [Ala-boroPro] | ≧2,000 μg/kg | – | – | –
7 | NCCCC[C@H](N)C(=O)N1CCC[C@H]1B(O)O [Lys-boroPro] | ≧2,000 μg/kg | more rapidly reversible | – | –
8 | N[C@@H](Cc1ccccc1)C(=O)N1CCC[C@H]1B(O)O [Phe-boroPro] | – | more rapidly reversible | – | –
9 | N[C@@H](CO)C(=O)N1CCC[C@H]1B(O)O [Ser-boroPro] | 4,000 μg/kg | – | – | –
10 | N[C@@H](CCC(=O)O)C(=O)N1CCC[C@H]1B(O)O [Glu-boroPro] | – | sustained DPP-IV inhibition | failed to affect serum levels of KC/CXCL1 at any of the doses tested | Blood plasma level of GLP-1 following oral glucose challenge (Zucker fa/fa rats): increased; Blood plasma level of insulin following oral glucose challenge (Zucker fa/fa rats): increased; Blood glucose excursion after oral glucose challenge (Zucker fa/fa rats; glucose 2 g/kg): reduced; Inhibition of serum DPP-IV activity (serum DPP-IV [4]; 20 and 200 μg doses per mouse, oral): maximally inhibited serum DPP-IV activity; ID50 (dose required to reduce serum DPP-IV activity by 50% of baseline) (serum DPP-IV [4]; BALB/c mice, single oral dose): 1 μg/mouse; MTD (maximum tolerated dose) (Lewis rats; Lewis, rat, in vivo, 5 days): 15,000 μg/kg; Glucose excursion post oral glucose challenge (ob/ob mice; 1.0 μmol/kg oral, 15 minutes prior to glucose 1 g/kg): reduced; Anti-glycemic effect (area under the blood glucose curve) (ob/ob mice; single 1.0 μmol/kg dose, ANOVA): significant (P=0.0010)
11 | O=C(C1CCCN1)N1CCCC1B(O)O (stereo not drawn) [Pro-boroPro] | ≧2,000 μg/kg | more rapidly reversible | – | –
12 | NC(=O)CC[C@H](N)C(=O)N1CCC[C@H]1B(O)O [Gln-boroPro] | ≧800 μg/kg | – | – | –
13 | CSCC[C@H](N)C(=O)N1CCC[C@H]1B(O)O [Met-boroPro] | 160 µg/kg | – | – | –
